Experimental data reported in patent US20130324437A1, “METHOD FOR IDENTIFYING ANTIMICROBIAL COMPOUNDS AND DETERMINING ANTIBIOTIC SENSITIVITY” (THE REGENTS OF THE UNIVERSITY OF CALIFORNIA, priority 2010, published 2013).
Converted amounts (≈) assume the structure as drawn. Read-outs that look alike come from different tables or passages of the source.

Key:
E. coli strain JP750 [1] = assay type: cell-based, Escherichia coli; conditions: for chromosome morphology: 2 hours treatment; for chromosomes exhibiting doughnut or ring shape: lethal dose (MIC), 2 hours, n=50; for cell length: cell elongation, FIG. 2 / FIG. 3
Experimental: The dose-dependent cytological profiles for the various classes of antibiotics was determined. In general, a series of cultures of the appropriate strain were grown in LB at 30° C. until the cultures reached a density of approximately 2×10^8 cells/ml, at which point the compound of interest was added so that the final concentrations ranged from 0 to 200 μg/ml. For each compound, samples representing ⅕×, 1× and 5× the MIC were examined. Samples were taken at various times after addition of drug (ranging from 0.2 to 3 hours). The cells were stained with FM 4-64 (1 μg/ml) to visualize the cell membranes and DAPI (5 μg/ml) to visualize the chromosome (Pogliano et al. (1999) Mol. Microbiol. 31:1149).
Images of each stain and any fluorescently-tagged fusion protein present in the strain were then captured using a high resolution microscope. Cell length and width, chromosome length and shape, distance of the chromosome from each cell pole, the number of chromosomes per cell, and the presence and distribution of GFP (or GFP fusions) present within the cells were measured.
Strain JP750 expresses a SeqA-GFP fusion from an IPTG dependent promoter. SeqA-GFP forms fluorescent foci that indicate the position of DNA replication forks/hemimethylated DNA within the cell (Brendler et al. (2000) EMBO 19:6249). After two hours of growth, samples were taken, stained with FM 4-64 (1 μg/ml) to visualize the cell membranes, and DAPI (5 μg/ml) to visualize the chromosome.

[2] = system: E. coli strains JP750 or W3110; test: Determination of MIC (growth in LB with antibiotic); assay type: cell-based; conditions: Escherichia coli, read-out: minimal inhibitory concentration (MIC)
Experimental: The minimal inhibitory concentration (MIC) of each antibiotic was determined for E. coli strains JP750 or W3110, and for Bacillus subtilis strain PY79. A test tube containing 5 ml of LB was inoculated with a single colony and grown until the culture reached a density of approximately 2×10^8 cells/ml. Small inoculums (20 μl) of this culture were then diluted into LB containing various concentrations of antibiotic ranging from 0 to 200 μg/ml and the cultures were incubated overnight at 30° C. The MIC was the lowest concentration that blocked growth.

[3] = system: Escherichia coli and Bacillus subtilis cells; test: Summary of cytological profiles by mechanism of action (FIG. 1); assay type: cell-based; conditions: example compound of the MOA class
Experimental: FIG. 1. Summary of cytological profiles for drugs with the indicated mechanisms of action (MOA).
To determine if different classes of antimicrobials can be distinguished based on cytological parameters, comparative cytological analysis of Escherichia coli and Bacillus subtilis cells treated with several different classes of antibiotics was performed. […] Also included were nonspecific inhibitors such as bleach, ethidium bromide, and sodium docecyl sulfate. […] This analysis is expanded to molecules with unknown MOAs as described below.

E. coli = test: Growth curve (optical density at 600 nm); assay type: cell-based, Escherichia coli
E. coli strain JP750 [4] = conditions: Pogliano et al. 1997; cited from earlier work
[5] = system: gram positive bacteria and the E. coli imp mutant; conditions: Kang et al. (2009); Pache & Champman (1972); cited from earlier work
E. coli imp strain = test: Cytological profiling of E. coli imp strain (DAPI staining intensity); assay type: cell-based, Escherichia coli; conditions: 10 minute exposure, FIG. 10
Experimental: FIG. 10. Measurements of DAPI staining for single cells after 10 minute exposure to nisin, Spirohexenolide A, chlorothricin, and DMSO. […] Cells treated with nisin, SpiroA, and chlorothricin show increased fluorescence comparted to untreated control.
Cytological profiling was used to determine the MOA of spirohexenolide A. A culture of the E. coli imp strain was grown in LB media at 30° C. and spirohexenolide A was added at various concentrations. After either 10 minutes or two hours, samples were stained with FM 4-64 and DAPI for examination with a fluorescence microscope. The cytological profile of spirohexenolide A was identical to that for nisin, a compound that forms channels in the membrane. Chromosome stains such as DAPI and Sytox green are partially excluded from the cell by the cytoplasmic membrane in untreated cells, but are taken up in cells treated with permeablizers such as nisin.

Bacillus subtilis = test: Cytological profiling of Bacillus subtilis (FM 4-64, DAPI, Sytox Green); assay type: cell-based; conditions: FIG. 8
Experimental: (§1) FIG. 8. Affect of various treatments on Bacillus subtilis cell architecture and permeability. (A-J) Cytological profiling. Cells were stained with the membrane stain FM 4-64 (red) and the membrane impermeable nucleotide stains Sytox Green (green) and DAPI (blue) and visualized 2 hours after treatment unless otherwise noted. […] Cells imaged after 1 hr of treatment. […] Cells were imaged after 8 hours. (K) Cell permeability as assessed by Sytox staining intensity per pixel.
The effects of these drugs on the Gram positive bacterium Bacillus subtilis was determined using the fluorescent membrane stain FM 4-64 and two nucleotide stains that are membrane impermeable (DAPI and Sytox).

[6] = system: proton motive force (PMF); test: DiSC3(5) fluorometer assay of proton motive force; assay type: cell-based, Bacillus subtilis; conditions: vancomycin at the MIC
Experimental: as §1
The fluorescent stain DiSC3(5) was used in a fluorometer assay, in which cells with a decreased PMF show increased fluorescence.

## [H]/N=C(/N)N[C@H]1[C@H](O)[C@@H](O)[C@H](O[C@@H]2O[C@@H](C)[C@](O)(C=O)[C@H]2O[C@@H]2O[C@@H](CO)[C@H](O)[C@@H](O)[C@@H]2NC)[C@@H](N/C(N)=N\[H])[C@@H]1O [streptomycin]
E. coli strain JP750 [1]
  chromosome morphology: condensed chromosomes but not ring formation
[2]; LB, overnight at 30° C.
  MIC: 50 µg/mL (≈ 86 µM)

## polymyxin B
E. coli strain JP750 [1]; two hours at the MIC
  cytological profile compared with reference: cytological profile similar to CHIR-090

## NC[C@H]1O[C@H](O[C@H]2[C@H](O)[C@@H](O[C@H]3O[C@H](CO)[C@@H](O)[C@H](N)[C@H]3O)[C@H](N)C[C@@H]2N)[C@H](O)[C@@H](O)[C@@H]1O [kanamycin]
[2]; LB, overnight at 30° C.
  MIC: 50 µg/mL (≈ 103 µM)

## C[C@@H](O)[C@H](NC(=O)c1ccc(C#Cc2ccc(CN3CCOCC3)cc2)cc1)C(=O)NO [CHIR-090]
[3]
  cytological profile (FIG. 1 summary): produces chains of cells with increased permeability

## O=C(N[C@H](CO)[C@H](O)c1ccc([N+](=O)[O-])cc1)C(Cl)Cl [chloramphenicol]
E. coli strain JP750 [1]
  chromosome morphology: caused chromosomes to form rings
  chromosomes exhibiting doughnut or ring shape: 98%
E. coli strain JP750 [1]; lethal dose (5 μg/ml), two hours
  distance between edge of chromosome and cell pole: dramatic increase
[2]; LB, overnight at 30° C.
  MIC: 5 µg/mL (≈ 15.5 µM)
[3]
  cytological profile (FIG. 1 summary): leads to a toroidal chromosome and wider cells

## CN(C)[C@@H]1C(O)=C(C(N)=O)C(=O)[C@@]2(O)C(O)=C3C(=O)c4c(O)cccc4[C@@](C)(O)[C@H]3C[C@@H]12 [tetracycline]
E. coli strain JP750 [1]
  chromosomes exhibiting doughnut or ring shape: 98%
[2]; LB, overnight at 30° C.
  MIC: 20 µg/mL (≈ 45 µM)

## CCn1cc(C(=O)O)c(=O)c2ccc(C)nc21 [nalidixic acid]
E. coli strain JP750 [1]
  chromosome morphology: elongated chromosomes
  cell length: caused elongation
E. coli strain JP750 [1]; LB, 30° C., FIG. 2
  SeqA-GFP foci distribution: highly elongated chromosomes in which the SeqA foci are clustered together
[2]
  MIC: 0.5 µg/mL (≈ 2.15 µM)
E. coli; five-fold below the MIC
  effect on growth (optical density at 600 nm): no detectable effect on growth
E. coli; lethal dose (1×MIC)
  effect on growth: reduced growth
[3]
  cytological profile (FIG. 1 summary): produces elongated cells with centrally localized and fragmented DNA

## CC1=C(C(=O)O)N2C(=O)[C@@H](NC(=O)[C@H](N)c3ccccc3)[C@H]2SC1 [cephalexin]
E. coli strain JP750 [1]
  cell length: elongated
E. coli strain JP750 [4]
  chromosome shape: chromosome shape is not affected
[3]
  cytological profile (FIG. 1 summary): produces elongated cells with multiple chromosomes

## COc1ccc(Cl)c(C)c1C(=O)O[C@@H]1C[C@H](O[C@H]2[C@H](O)C[C@H](O[C@H]3CCC[C@@H]4[C@@H]3C=C[C@H]3CCCC/C=C/[C@@H]5C=C(C(=O)O)[C@H](C)C[C@]56OC(=O)C(=C6O)OC(=O)[C@@]43C)O[C@@H]2C)O[C@H](C)[C@H]1O [chlorothricin]
[5]
  antibacterial spectrum: active against gram positive bacteria and the E. coli imp mutant
E. coli imp strain
  DAPI staining: increased DAPI staining

## CC1(C)S[C@@H]2[C@H](NC(=O)Cc3ccccc3)C(=O)N2[C@H]1C(=O)O [penicillin G]
Bacillus subtilis
  cytological phenotype (membrane, chromosome, permeability): cells with condensed chromosomes that lyse at various times
[3]
  cytological profile (FIG. 1 summary): causes chromosome condensation and lysis

## CN[C@H](CC(C)C)C(=O)N[C@H]1C(=O)N[C@@H](CC(N)=O)C(=O)N[C@H]2C(=O)N[C@H]3C(=O)N[C@H](C(=O)N[C@H](C(=O)O)c4cc(O)cc(O)c4-c4cc3ccc4O)[C@H](O)c3ccc(c(Cl)c3)Oc3cc2cc(c3O[C@@H]2O[C@H](CO)[C@@H](O)[C@H](O)[C@H]2O[C@H]2C[C@](C)(N)[C@H](O)[C@H](C)O2)Oc2ccc(cc2Cl)[C@H]1O [vancomycin]
Bacillus subtilis
  cytological phenotype (membrane, chromosome, permeability): internal membrane vesicles and increased DAPI and Sytox permeability in a subset of the cells
[6]
  effect on proton motive force / membrane polarization: no effect on PMF
[3]
  cytological profile (FIG. 1 summary): produces large internal membrane vesicles

## COc1cc(Cc2cnc(N)nc2N)cc(OC)c1OC [trimethoprim]
[3]
  cytological profile (FIG. 1 summary): condense the chromosome without affecting cell width

## CC1=C[C@]2(C)/C=C(C)/C=C/C[C@@H](O)/C=C3C=C/C(=C4\C(=O)O[C@]2(C[C@@H]1C)C4=O)OC/3 [Spirohexenolide A]
[5]
  antibacterial spectrum: active against gram positive bacteria and the E. coli imp mutant
E. coli imp strain
  DAPI staining intensity relative to untreated (WT) cells: 5 ×

## [Na+].[O-]Cl [bleach]
[3]
  cytological profile (FIG. 1 summary): causes the chromosome to condense into a dramatic ribbon-like structure

## N#CC(C#N)=NNc1cccc(Cl)c1 [CCCP]
Bacillus subtilis
  cytological phenotype (membrane, chromosome, permeability): cells with uneven membrane staining and decondensed chromosomes
[6]
  effect on proton motive force / membrane polarization: rapidly depolarizes the membranes

## nisin
Bacillus subtilis
  cytological phenotype (membrane, chromosome, permeability): increased DAPI and Sytox staining
E. coli imp strain
  DAPI staining intensity relative to untreated (WT) cells: 5 ×
[6]
  effect on proton motive force / membrane polarization: rapidly collapse the proton motive force (PMF)
[3]
  cytological profile (FIG. 1 summary): show increased permeability at early times
